Patent publication US10968214B2, “KRas G12C inhibitors” (Eli Lilly and Company, priority 2018, dated 2021)
Read-outs that look alike come from different tables or passages of the source.

Experiments:
UM-UC-3 = assay: Combination 4 day growth assay (Cell TiterGlo), UM-UC-3; type: cell-based; settings: Homo sapiens, UMUC3, 96 h, single treatment, read-out: Absolute IC50
Method: Cell lines for this study are obtained from ATCC and grown under ATCC recommended conditions, except for LXFA-983L, which is obtained from Oncotest/Charles Rivers Laboratories, Wilmington, Mass. and D122-96, which is obtained from L. Eisenbach (Weizman Institute of Science, Rehovot, Israel)—both grown under recommended conditions. […] The proliferation assay is performed as a 4 day growth assay using Cell TiterGlo® as the readout. Briefly, cells are plated in 96-well cell culture plates and allowed to adhere overnight at 37° C. The following day, cells are treated with compounds, either single treatments or combination treatments. First, the testing compounds are serially diluted in DMSO, followed by dilution into media as a 5× concentration with 1% DMSO, and finally added to cells in media to dilute to 1×. The cells are incubated at 37° C. for 4 more days. At the end of the incubation period, Cell TiterGlo® reagent is mixed and added to the wells. After 10 minutes, the luminescence is read by a Perkin Elmer Envision instrument. Absolute IC50 values generated by a 4-parameter logistics model for the single and combination treatments are generated, followed by combination indexes for each combination treatment and cell line. The combination IC50 values are adjusted based on the total concentration of each compound when added together. […] The combination index (CI) measures the degree to which the potency of a combination therapy differs from the expected-if-additive potency and is based on the Loewe definition of additivity.
[formula] Where • CAy and CBy are the concentrations of therapies A and B that produce an effect, y, when given in combination • ICAy and ICBy are the concentrations of A and B that produce an effect, y, when given individually The biological interpretation of the combination index is as follows: synergistic if the combination index <0.5, additive if the combination index is between 0.5 and 2, and antagonistic if the combination index is >2.

[1] = tested on: pERK in H2122 xenograft tumors; assay: In vivo target inhibition/PD, H2122 xenograft, pERK; settings: Mus musculus, NCI-H2122; for inhibition at 10 mg/kg: 10 mg/kg single dose
Method: (§1) To evaluate in vivo target inhibition and anti-tumor efficacy of a compound, Human lung cancer cells, H358 or H2122 are implanted into nude mice xenograft tumor models. Either H358 or H2122 cells (10×10^6 in a 1:1 Matrigel® mix, 0.2 mL total volume) are implanted by subcutaneous injection in hind leg of nude female mice (Harlan Laboratories). A total of 5 mice each group are used for efficacy study, and a total of 3-4 mice each group are used for target engagement and PD study. Treatment is initiated with oral administration (gavage) of a test compound or vehicle (20% Captisol®, 25 mM phosphate, pH 2.0 in 0.2 mL volume when the tumor size reaches approximately […]. Tumor growth and body weight are monitored over time to evaluate efficacy and signs of toxicity. Bidimensional measurements of tumors are performed twice a week and tumor volumes are calculated based on mid-axis length and mid-axis width. Tumor volume data are transformed to a log scale to equalize variance across time and treatment groups. The log volume data are analyzed with a two-way repeated measures analysis of variance by time and treatment using the mixed procedures in SAS software (version 8.2). The correlation model for the repeated measures is spatial power. Treated groups are compared to the control group at each time point. The mixed procedure is also used separately for each treatment group to calculate adjusted means and standard errors at each time point. Both analyses account for the autocorrelation within each animal. The adjusted means and standard errors are plotted for each treatment group versus time.
(§2) For in vivo target inhibition and PD analysis, tumors are ground by mortar and pestle on dry ice and tumor fragments are added to 800 μL of lysis buffer containing 1% Triton X100, 25 mM Tris pH 7.5, 150 mM NaCl, 1 mM EDTA, and 1 mM EGTA with Halt protease and phosphatase inhibitor cocktail (Thermo Scientific, cat. no. 1861281) in lysing matrix D tubes (MP Biomedical®, cat. no. 6913-500) with one additional large bead (MP Biomedical® ¼″ ceramic sphere bead cat. no. 6540-412) per tube. Tumor fragments are homogenized in a Thermo Bio101® fast prep (FP120) at setting 4 for […] while cold for a total of 2 times. Lysates are spun at 14,000 rpm for 10 min at 4° C. to clarify. Protein estimation is done on the lysate supernatant using a BioRad Dc® protein assay and lysates are diluted in complete lysis/binding buffer from the Ras GTPase Chemi ELISA Kit® (Active Motif, cat. no. 52097). The active KRas ELISA was performed as follows: Glutathione-coated ELISA wells were incubated with diluted RAF1-GST in complete lysis/binding buffer for 1 hr at 4° C. with gentle agitation. Wells are washed 3 times with wash buffer and 100 μg of lysates are added to each well and incubated at RT for 1 hr with mild agitation. The wells are washed an additional 3 times, then primary antibody, diluted in antibody binding buffer, is added to each well. The plates are incubated for 1 hr. The wells are washed 3 more times before adding HRP-conjugated secondary antibody, diluted in antibody binding buffer, to each well. The plates are incubated at RT for 1 hr. ELISA wells are washed 4 times, chemiluminescent reagents is added and then luminescence is read. For pERK Meso Scale Discovery ELISA, 25 μg of protein containing 0.1% SDS is used; for pMEK Meso Scale Discovery ELISA, 50 μg of protein without SDS is used. Meso Scale Discovery Whole Cell Lysate Kits for pERK and pMEK are provided by Meso Scale Discovery.
(§3) After a single dose, the tumor samples are harvested at different time points. The tumor lysates are prepared as described above. The inhibition of pERK, pMEK, and active KRas is measured as described above.

[2] = target: T1, active KRas in H2122 xenograft tumors (Homo sapiens, UniProt P01116, G12C); assay: In vivo target inhibition/PD, H2122 xenograft, active KRas; settings: NCI-H2122, mouse; for inhibition at 10 mg/kg: 10 mg/kg single dose; for inhibition at 30 mg/kg: 30 mg/kg single dose
T1 construct: from tissue; host or cells: H2122 xenograft tumours from nude mice
T1 sequence (P01116 1-188 isoform P01116-2 G12C): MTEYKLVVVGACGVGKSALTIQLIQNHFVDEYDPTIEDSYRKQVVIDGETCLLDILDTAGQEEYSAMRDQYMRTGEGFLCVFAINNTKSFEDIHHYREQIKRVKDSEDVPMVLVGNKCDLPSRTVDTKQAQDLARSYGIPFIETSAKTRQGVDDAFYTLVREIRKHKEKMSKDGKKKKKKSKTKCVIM
Method: as §1, §2, §3

[3] = 2 hr, read-out: % Inhibition Active KRas
[4] = 4 hr, read-out: % Inhibition Active KRas
[5] = 8 hr, read-out: % Inhibition Active KRas
[6] = 12 hr, read-out: % Inhibition Active KRas
[7] = 24 hr, read-out: % Inhibition Active KRas

SMILES: C=CC(=O)N1CCN(c2ncnc3c(F)c(-c4ccc(F)c5sc(N)nc45)c(Cl)cc23)CC1 [Example 1, 1-{4-[7-(2-Amino-7-fluoro-1,3-benzothiazol-4-yl)-6-chloro-8-fluoroquinazolin-4-yl]piperazin-1-yl}prop-2-en-1-one]
- IC50 (UM-UC-3): 1.83 µM
- inhibition at 10 mg/kg ([1]; H2122 xenograft, 2 hr, read-out: % Inhibition pERK): 46.8%
- inhibition at 10 mg/kg ([1]; H2122 xenograft, 4 hr, read-out: % Inhibition pERK): 47%
- inhibition at 10 mg/kg ([1]; H2122 xenograft, 8 hr, read-out: % Inhibition pERK): 34.5%
- inhibition at 10 mg/kg ([1]; H2122 xenograft, 12 hr, read-out: % Inhibition pERK): 7.2%
- inhibition at 10 mg/kg ([1]; H2122 xenograft, 24 hr, read-out: % Inhibition pERK): -2.8%
- inhibition at 10 mg/kg ([1]; H2122 xenograft, from 2-12 hr, read-out: pERK inhibition): 7 to 47%
- inhibition at 30 mg/kg ([1]; H2122 xenograft, 30 mg/kg single dose, 2 hr, read-out: % Inhibition pERK): 75.6%
- inhibition at 30 mg/kg ([1]; H2122 xenograft, 30 mg/kg single dose, 4 hr, read-out: % Inhibition pERK): 75.3%
- inhibition at 30 mg/kg ([1]; H2122 xenograft, 30 mg/kg single dose, 8 hr, read-out: % Inhibition pERK): 67.4%
- inhibition at 30 mg/kg ([1]; H2122 xenograft, 30 mg/kg single dose, 12 hr, read-out: % Inhibition pERK): 48.8%
- inhibition at 30 mg/kg ([1]; H2122 xenograft, 30 mg/kg single dose, 24 hr, read-out: % Inhibition pERK): 20.4%
- inhibition at 100 mg/kg ([1]; H2122 xenograft, 100 mg/kg single dose, 4 hr): 79.1%
- inhibition at 30 mg/kg ([1]; read-out: pERK inhibition): 49 to 76%
- inhibition at 10 mg/kg [2, 3]: 25.8%
- inhibition at 10 mg/kg [2, 4]: 32.3%
- inhibition at 10 mg/kg [2, 5]: 34.7%
- inhibition at 10 mg/kg [2, 6]: 37.1%
- inhibition at 10 mg/kg [2, 7]: 16.7%
- inhibition at 10 mg/kg ([2]; from 2-12 hr, read-out: active KRas inhibition): 26 to 37%
- inhibition at 30 mg/kg [2, 3]: 57.5%
- inhibition at 30 mg/kg [2, 4]: 78.8%
- inhibition at 30 mg/kg [2, 5]: 67%
- inhibition at 30 mg/kg [2, 6]: 46.5%
- inhibition at 30 mg/kg [2, 7]: 26.1%
- inhibition at 30 mg/kg ([2]; from 2-[…], read-out: active KRas inhibition): 26 to 79%
- inhibition at 100 mg/kg ([2]; 100 mg/kg single dose, 4 hr): 90.6%
